Converted amounts (≈) assume the structure as drawn. Where two headings read alike, the source gives them in different places. Bounds are passed on as bounds.

For data set [1] the following is noted: pH 6.5.
The nature of data set [2]: in vivo. To be noted: BALB/c, mouse, po, 10 mg/kg.
Data set [3] concerns SnCDPK1. The data set can be described thus: Recombinant SnCDPK1 inhibition. In kind it is biochemical, Sarcocystis neurona.
Data set [4] relates to N. caninum. The data set can be described thus: N. caninum in vitro cultures. It is filed as cell-based, Neospora caninum.
The subject of data set [5] is N. caninum. Nature of the data set: Treatment of non-pregnant and pregnant Balb/c mice infected with N. caninum. It is filed as in vivo, Neospora caninum.
The target of data set [6] is BbCDPK1 (Besnoitia besnoiti, UniProt A0A290U7L2). Nature of the data set: BbCDPK1 inhibition. It is filed as biochemical.
Data set [7] deals with Besnoitia besnoiti. Nature of the data set: Besnoitia besnoiti in vitro activity. It is filed as cell-based.
Data set [8] deals with S. neurona merozoites. The data set can be described thus: S. neurona growth assay (yellow fluorescent protein-expressing clone). To be noted: Sarcocystis neurona, read-out: S. neurona EC50.
For data set [9], the target named is TgCDPK1 (Toxoplasma gondii, UniProt Q9BJF5). The data set can be described thus: biochemical.
Data set [10] is described as follows: Rat PK following IV and PO dosing. The following applies: rats, PO vs IV.
Data set [11] is described as follows: physchem. To be noted: water, pH 6.5, aqueous buffer.

Sequence of TgCDPK1 (Q9BJF5 1-507): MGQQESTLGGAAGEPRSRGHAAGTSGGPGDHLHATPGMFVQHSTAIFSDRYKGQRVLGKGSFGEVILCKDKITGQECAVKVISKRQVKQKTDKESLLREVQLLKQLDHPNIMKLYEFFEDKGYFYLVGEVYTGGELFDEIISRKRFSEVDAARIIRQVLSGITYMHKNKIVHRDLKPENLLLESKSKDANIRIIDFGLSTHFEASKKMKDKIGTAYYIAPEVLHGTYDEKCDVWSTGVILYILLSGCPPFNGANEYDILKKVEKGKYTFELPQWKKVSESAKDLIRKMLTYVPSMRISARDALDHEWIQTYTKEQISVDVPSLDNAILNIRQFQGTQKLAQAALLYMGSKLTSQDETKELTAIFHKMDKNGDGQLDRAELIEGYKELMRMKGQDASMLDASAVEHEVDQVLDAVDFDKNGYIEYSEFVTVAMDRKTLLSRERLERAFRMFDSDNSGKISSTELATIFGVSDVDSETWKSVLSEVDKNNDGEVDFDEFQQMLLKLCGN
Sequence of BbCDPK1 (A0A290U7L2 1-497): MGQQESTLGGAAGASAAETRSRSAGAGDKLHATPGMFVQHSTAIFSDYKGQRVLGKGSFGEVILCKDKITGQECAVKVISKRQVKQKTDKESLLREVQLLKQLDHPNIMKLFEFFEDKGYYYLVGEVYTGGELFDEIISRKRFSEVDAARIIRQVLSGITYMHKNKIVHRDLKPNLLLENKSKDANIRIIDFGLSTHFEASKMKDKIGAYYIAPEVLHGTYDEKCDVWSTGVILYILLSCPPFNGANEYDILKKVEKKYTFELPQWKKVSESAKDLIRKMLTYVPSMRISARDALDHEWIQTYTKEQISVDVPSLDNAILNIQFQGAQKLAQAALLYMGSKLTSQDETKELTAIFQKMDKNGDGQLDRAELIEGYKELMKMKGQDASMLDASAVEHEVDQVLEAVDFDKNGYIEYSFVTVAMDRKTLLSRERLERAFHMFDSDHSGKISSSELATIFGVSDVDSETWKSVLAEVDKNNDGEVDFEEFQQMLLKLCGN

As a reminder, the Solubility is the dissolved amount per volume that the medium holds. For orientation: Cmax means the maximum level reached in the sampled fluid or tissue. As to `CC(C)(CO)Cn1nc(-c2ccc3cc(OC4CC4)ccc3c2)c2c(N)ncnc21` [Example 26, 3-(4-Amino-3-(6-cyclopropoxynaphthalen-2-yl)-1H-pyrazolo[3,4-d]pyrimidin-1-yl)-2,2-dimethylpropan-1-ol], the Solubility in data set [1] is 6.2 µM (≈ 2.5 µg/mL). Besides, the Cmax in [2] (female) is 390 ± 160 nM.
Broadly, the IC50 is the concentration needed to halve the response being measured. As a reminder, the EC50 is the concentration that produces a half-maximal response. Take `CCOc1ccc2cc(-c3nn(CC4CCN(C)CC4)c4ncnc(N)c34)ccc2c1` [Compound 150]: the IC50 in [3] was 5.9 nM; in [6], 4 nM. Further, the “activity against N. caninum in vitro” value in [4] is on record as “effective in treating N. caninum in vitro”. The “treatment of N. caninum infected mice” value in [5] was “treats infected mice and rids of N. caninum infection in brain and fetuses”. The “B. besnoiti EC100” value in [7] worked out at 2.580 µM. Further, the concentration giving a half-maximal response (EC50) came out at 45 nM in [7] (Besnoitia besnoiti, read-out: B. besnoiti EC50) and 68 nM in [8]. In data set [2], this compound registered a Cmax of 750 ± 150 nM.
As for `Nc1ncnc2c1c(-c1ccc3nccnc3c1)nn2CC1CCNCC1`, the IC50 in data set [3] is over 2000 nM. The EC50 in [8] is over 10000 nM.
In the same order, the values of `CC(C)(O)Cn1nc(-c2ccc3nc(OC4CC4)ccc3c2)c2c(N)ncnc21` [Example 25, 1-(4-Amino-3-(2-cyclopropoxyquinolin-6-yl)-1H-pyrazolo[3,4-d]pyrimidin-1-yl)-2-methylpropan-2-ol] are 7.5 nM and 128 nM.
On to `CC(C)Cn1nc(-c2ccc3cc(OCC(C)(C)O)ccc3c2)c2c(N)ncnc21` [Example 33, 1-(6-(4-amino-1-isobutyl-1H-pyrazolo[3,4-d]pyrimidin-3-yl)naphthalen-2-yloxy)-2-methylpropan-2-ol], for which the IC50 in data set [9] turned out to be 5.7 nM. Further, in data set [10], the “bioavailability (in words)” value is given as “essentially complete bioavailability”.
In data set [9], `CCOc1ccc2cc(-c3nn(CC4(O)CNC4)c4ncnc(N)c34)ccc2n1` [Example 93, 3-((4-amino-3-(2-ethoxyquinolin-6-yl)-1H-pyrazolo[3,4-d]pyrimidin-1-yl)methyl)azetidin-3-ol] showed an IC50 of 2.9 nM.
On the same count and under the same terms, as for `CCOc1ccc2cc(-c3nn(CC(=O)N4CCOCC4)c4ncnc(N)c34)ccc2c1` [Example 50, 2-(4-amino-3-(6-ethoxynaphthalen-2-yl)-1H-pyrazolo[3,4-d]pyrimidin-1-yl)-1-morpholinoethanone], the figure is 42.9 nM; as for `CCOc1ccc2cc(-c3nn(CC(C)(C)CO)c4ncnc(N)c34)ccc2c1` [Example 32, 3-(4-amino-3-(6-ethoxynaphthalen-2-yl)-1H-pyrazolo[3,4-d]pyrimidin-1-yl)-2,2-dimethylpropan-1-ol], 1.2 nM; as for `CN1CC(O)(Cn2nc(-c3ccc4nc(OC5CC5)ccc4c3)c3c(N)ncnc32)C1` [Example 103, 3-((4-amino-3-(2-cyclopropoxyquinolin-6-yl)-1H-pyrazolo[3,4-d]pyrimidin-1-yl)methyl)-1-methylazetidin-3-ol], 4.8 nM.
Still for that read-out and setting: as for `CC(C)(F)Cn1nc(-c2ccc3cc(OC4CC4)ccc3c2)c2c(N)ncnc21` [Example 77, 3-(6-cyclopropoxynaphthalen-2-yl)-1-(2-fluoro-2-methylpropyl)-1H-pyrazolo[3,4-d]pyrimidin-4-amine], the figure is 6.4 nM; as for `Nc1ncnc2c1c(-c1ccc3cc(OC4CC4)ccc3c1)nn2CC1(O)CCC1` [Example 59, 1-((4-amino-3-(6-cyclopropoxynaphthalen-2-yl)-1H-pyrazolo[3,4-d]pyrimidin-1-yl)methyl)cyclobutanol], 8.6 nM.
In data set [9], `Nc1ncnc2c1c(-c1ccc3nc(OC4CC4)ccc3c1)nn2CC1CNC1` [Example 40, 1-(azetidin-3-ylmethyl)-3-(2-cyclopropoxyquinolin-6-yl)-1H-pyrazolo[3,4-d]pyrimidin-4-amine] yielded an IC50 of 2.3 nM.
Compound `CCOc1ccc2ccc(-c3nn(CC(C)C)c4ncnc(N)c34)cc2c1` [Example 47, 3-(7-ethoxynaphthalen-2-yl)-1-isobutyl-1H-pyrazolo[3,4-d]pyrimidin-4-amine] registered an IC50 in [9] of 10.8 nM.
The compound `CCOc1ccc2cc(-c3nn(CC4(C)COC4)c4ncnc(N)c34)ccc2c1` [Example 49, 3-(6-ethoxynaphthalen-2-yl)-1-((3-methyloxetan-3-yl)methyl)-1H-pyrazolo[3,4-d]pyrimidin-4-amine] had an IC50 in data set [9] of 2.9 nM.
Usually Tmax stands for the time from dosing to the highest level. A word on the half-life: it is the time needed for the level to fall by half in the phase considered. The low end stands for rapid decline, the high end for slow decline. For `COc1ccc2cc(-c3nn(CC4CCOCC4)c4ncnc(N)c34)ccc2n1` [Example 27, 3-(2-methoxyquinolin-6-yl)-1-((tetrahydro-2H-pyran-4-yl)methyl)-1H-pyrazolo[3,4-d]pyrimidin-4-amine], in data set [9], the IC50 worked out at 21.2 nM. In data set [2] (female), the concentration peaked (Cmax) at 3900 ± 1100 nM, the time to peak (Tmax) was 30 min and the half-life came to 41 ± 21 min. This compound registered a Solubility in [11] of 8 µM (≈ 3.12 µg/mL).
Take `CCOc1ccc2ccc(-c3nn(CC4CCNCC4)c4ncnc(N)c34)cc2c1` [Example 48, 3-(7-ethoxynaphthalen-2-yl)-1-(piperidin-4-ylmethyl)-1H-pyrazolo[3,4-d]pyrimidin-4-amine]: in [9], 19.1 nM corresponded to half-maximal inhibition (IC50).
Consider `Nc1ncnc2c1c(-c1ccc3nc(OC4CC4)ccc3c1)nn2CC1CCNCC1` [Example 39, 3-(2-cyclopropoxyquinolin-6-yl)-1-(piperidin-4-ylmethyl)-1H-pyrazolo[3,4-d]pyrimidin-4-amine], for which, in data set [9], 1 nM corresponded to half-maximal inhibition (IC50).
As to `CCOc1ccc2cc(-c3nn(CC4(C#N)CCNCC4)c4ncnc(N)c34)ccc2n1` [Example 86, 4-((4-amino-3-(2-ethoxyquinolin-6-yl)-1H-pyrazolo[3,4-d]pyrimidin-1-yl)methyl)piperidine-4-carbonitrile], the IC50 in data set [9] was found to be 1.5 nM.
Compound `CCOc1ccc2cc(-c3nn(CC4(O)CCN(C)CC4)c4ncnc(N)c34)ccc2n1` [Example 80, 4-((4-amino-3-(2-ethoxyquinolin-6-yl)-1H-pyrazolo[3,4-d]pyrimidin-1-yl)methyl)-1-methylpiperidin-4-ol] came in with an IC50 in [9] of 23.1 nM.
`CC(C)n1nc(-c2ccc3cc(OC4COC4)ccc3c2)c2c(N)ncnc21` [Example 116, 1-isopropyl-3-(6-(oxetan-3-yloxy)naphthalen-2-yl)-1H-pyrazolo[3,4-d]pyrimidin-4-amine] came in with a concentration for half-maximal inhibition (IC50) in [9] of 6.1 nM.
Still for that read-out and setting: as for `COC(=O)COc1ccc2cc(-c3nn(CC4CCN(C)CC4)c4ncnc(N)c34)ccc2c1` [Example 72, methyl 2-((6-(4-amino-1-((1-methylpiperidin-4-yl)methyl)-1H-pyrazolo[3,4-d]pyrimidin-3-yl)naphthalen-2-yl)oxy)acetate], the figure is 49.6 nM; as for `CN1CC(Cn2nc(-c3ccc4nc(OC5CC5)ccc4c3)c3c(N)ncnc32)C1` [Example 41, 3-(2-cyclopropoxyquinolin-6-yl)-1-((1-methylazetidin-3-yl)methyl)-1H-pyrazolo[3,4-d]pyrimidin-4-amine], 2.8 nM.
In data set [1], `Nc1ncnc2c1c(-c1ccc3nc(OC4CC4)ccc3c1)nn2CC1CCOCC1` [Example 22, 3-(2-Cyclopropoxyquinolin-6-yl)-1-((tetrahydro-2H-pyran-4-yl)methyl)-1H-pyrazolo[3,4-d]pyrimidin-4-amine] registered a Solubility of 17 µM (≈ 7.08 µg/mL). In [2] (female), the Cmax is 880 ± 230 nM and the Tmax was 30 min.
In turn, `CN1CCC(Cn2nc(-c3ccc4cc(OC(F)F)ccc4c3)c3c(N)ncnc32)CC1` [Example 95, 3-(6-(difluoromethoxy)naphthalen-2-yl)-1-((1-methylpiperidin-4-yl)methyl)-1H-pyrazolo[3,4-d]pyrimidin-4-amine] had an IC50 in data set [9] of 6.5 nM.
As to `CC(C)n1nc(-c2ccc3cc(OCCO)ccc3c2)c2c(N)ncnc21` [Example 118, 2-((6-(4-amino-1-isopropyl-1H-pyrazolo[3,4-d]pyrimidin-3-yl)naphthalen-2-yl)oxy)ethan-1-ol], the IC50 in data set [9] was 6.2 nM.
As for `Nc1ncnc2c1c(-c1ccc3cc(OCC4CC4)ccc3c1)nn2CC1CCOCC1` [Example 29, 3-(6-(cyclopropylmethoxy)naphthalen-2-yl)-1-((tetrahydro-2H-pyran-4-yl)methyl)-1H-pyrazolo[3,4-d]pyrimidin-4-amine], half-maximal inhibition in data set [9] (IC50) required 4.8 nM.
In the case of `CCOc1ccc2cc(-c3nn(CC4(O)CCNCC4)c4ncnc(N)c34)ccc2n1` [Example 84, 4-((4-amino-3-(2-ethoxyquinolin-6-yl)-1H-pyrazolo[3,4-d]pyrimidin-1-yl)methyl)piperidin-4-ol], the midpoint of inhibition in data set [9], the IC50, lay at 4 nM.

These data come from patent US10307425B2, “Compositions and methods for treating toxoplasmosis, cryptosporidiosis and other apicomplexan protozoan related diseases” (UNIVERSITY OF WASHINGTON, priority 2015, dated 2019).
